Activity calls are given as the source filed them. No cut-off for these calls is given here.
Key:
Mus musculus [1] = assay: Antiinflammatory activity in LPS-induced BALB/c sepsis mouse model assessed as decrease in iNOS level in spleen at 10 to 20 mg/kg, po preadministered with compound for 14 days followed by LPS stimulation and measured after 6 hrs by Western blot analysis; format: functional, organism-based; conditions: dose 10-20 mg/kg, time 342.0 hrs
[2] = AUC (0 to t) in Sprague-Dawley rat at 20 mg/kg, po measured after 48 hrs; format: ADME, organism-based; conditions: in vivo
[3] = Oral bioavailability in Sprague-Dawley rat at 20 mg/kg measured after 48 hrs; format: ADME, organism-based; conditions: in vivo
[4] = target: T1, MAP kinase-interacting serine/threonine-protein kinase 2 (Homo sapiens, UniProt Q9HBH9); assay: Inhibition of MNK2 (unknown origin) at 1 uM relative to control
Target sequence in this assay (Q9HBH9 whole entry, looked up): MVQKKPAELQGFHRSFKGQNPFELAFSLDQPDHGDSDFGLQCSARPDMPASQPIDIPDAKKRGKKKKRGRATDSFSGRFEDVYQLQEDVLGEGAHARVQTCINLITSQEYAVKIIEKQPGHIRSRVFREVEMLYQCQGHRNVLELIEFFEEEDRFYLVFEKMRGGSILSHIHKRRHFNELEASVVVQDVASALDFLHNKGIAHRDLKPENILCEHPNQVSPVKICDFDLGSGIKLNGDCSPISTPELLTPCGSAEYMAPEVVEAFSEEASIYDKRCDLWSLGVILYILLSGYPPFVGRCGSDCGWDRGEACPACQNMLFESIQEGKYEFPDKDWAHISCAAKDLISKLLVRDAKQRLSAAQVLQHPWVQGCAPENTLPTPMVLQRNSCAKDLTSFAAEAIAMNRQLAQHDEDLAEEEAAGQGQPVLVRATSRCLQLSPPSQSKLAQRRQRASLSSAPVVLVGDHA

Mus musculus [5] = assay: Antiinflammatory activity in LPS-induced BALB/c sepsis mouse model assessed as decrease in serum IL-1beta level at 20 mg/kg, po preadministered with compound for 14 days followed by LPS stimulation and measured after 6 hrs by ELISA; format: functional, organism-based; conditions: time 342.0 hrs
[6] = target: MAP kinase-interacting serine/threonine-protein kinase 1 (Homo sapiens, UniProt Q9BUB5); assay: Inhibition of MNK1 (unknown origin) incubated for 60 mins in presence of ATP by HTRF assay
Mus musculus [7] = assay: Antiinflammatory activity in LPS-induced BALB/c sepsis mouse model assessed as reversal of LPS-induced lung […] index at 20 mg/kg, po preadministered with compound for 14 days followed by LPS stimulation and measured after 6 hrs; format: functional, organism-based; conditions: time 342.0 hrs
[8] = target: T1, MAP kinase-interacting serine/threonine-protein kinase 2; assay: Inhibition of MNK2 (unknown origin) incubated for 60 mins in presence of ATP by HTRF assay
Target sequence in this assay (Q9HBH9 whole entry): as the sequence (Q9HBH9 whole entry, looked up) above

Mus musculus [9] = assay: Antiinflammatory activity in LPS-induced BALB/c sepsis mouse model assessed as decrease in infiltration of macrophages in spleen at 10 to 20 mg/kg, po preadministered with compound for 14 days followed by LPS stimulation and measured after 6 hrs by immunohistochemistry analysis; format: functional, organism-based; conditions: dose 10-20 mg/kg, time 342.0 hrs
Mus musculus [10] = assay: Antiinflammatory activity in LPS-induced BALB/c sepsis mouse model assessed as decrease in serum AST level at 10 to 20 mg/kg, po preadministered with compound for 14 days followed by LPS stimulation and measured after 6 hrs; format: functional, organism-based; conditions: dose 10-20 mg/kg, time 342.0 hrs
RAW264.7 = assay: Antiinflammatory activity against mouse RAW264.7 cells assessed as inhibition of LPS-NO production at 20 uM by Griess reagent based assay relative to control; format: functional
Mus musculus [11] = assay: Antiinflammatory activity in LPS-induced BALB/c sepsis mouse model assessed as decrease in MDA level in serum at 20 mg/kg, po preadministered with compound for 14 days followed by LPS stimulation and measured after 6 hrs; format: functional, organism-based; conditions: time 342.0 hrs
[12] = Cmax in Sprague-Dawley rat at 5 mg/kg, iv measured after 48 hrs; format: ADME, organism-based; conditions: in vivo
Mus musculus [13] = assay: Antiinflammatory activity in LPS-induced BALB/c sepsis mouse model assessed as increase in SOD level in serum at 20 mg/kg, po preadministered with compound for 14 days followed by LPS stimulation and measured after 6 hrs; format: functional, organism-based; conditions: time 342.0 hrs

MAP kinase-interacting serine/threonine-protein kinase 1, sequence (Q9BUB5 whole entry): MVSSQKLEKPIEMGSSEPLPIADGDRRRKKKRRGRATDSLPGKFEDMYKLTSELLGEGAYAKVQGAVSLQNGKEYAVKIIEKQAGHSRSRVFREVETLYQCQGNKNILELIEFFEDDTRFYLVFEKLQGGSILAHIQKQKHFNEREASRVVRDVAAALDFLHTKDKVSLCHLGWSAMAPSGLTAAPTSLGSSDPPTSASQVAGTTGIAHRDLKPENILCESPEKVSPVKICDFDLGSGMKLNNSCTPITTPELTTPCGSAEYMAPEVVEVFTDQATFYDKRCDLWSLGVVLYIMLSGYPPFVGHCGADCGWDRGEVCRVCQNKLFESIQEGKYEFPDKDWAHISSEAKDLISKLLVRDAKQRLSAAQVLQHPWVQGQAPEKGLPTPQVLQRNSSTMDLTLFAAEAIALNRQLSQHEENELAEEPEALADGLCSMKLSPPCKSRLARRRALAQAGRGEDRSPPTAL

c1cc(-c2cc(C3CCNCC3)n[nH]2)c2cc[nH]c2n1
Activity (Mus musculus [1]): Active
AUCt [2]: 755.3 ng·h/mL
F [3]: 1.16%
inhibition [4]: 85.8%
Activity (Mus musculus [5]): Active
IC50 [6]: 121 nM
Activity (Mus musculus [7]): Active
IC50 [8]: 135 nM
Activity (Mus musculus [9]): Active
Activity (Mus musculus [10]): Active
inhibition at 20 µM (RAW264.7): 70%
Activity (Mus musculus [11]): Active
Cmax [12]: 3580 ng/mL
Activity (Mus musculus [13]): Active
